In ChEMBL document CHEMBL3885881, “DrugMatrix”:

Species: Rattus norvegicus
Experiment: DrugMatrix - Regimen: Daily Repeat
Assay type: toxicity, organism-based, Sprague-Dawley
Set-up: regimen Daily Repeat, gender Male, age 6-8 weeks
Settings: in vivo, po, route oral GAVAGE, vehicle .5 % CMC; for ASPARTATE AMINOTRANSFERASE / BLOOD UREA NITROGEN / CARBON DIOXIDE / CHLORIDE / CHOLESTEROL / CREATINE PHOSPHOKINASE / CREATININE / GLUCOSE / LACTATE DEHYDROGENASE / LIPASE / PHOSPHORUS / POTASSIUM / SODIUM / TOTAL BILIRUBIN / TOTAL PROTEIN / URIC ACID / ALANINE AMINOTRANSFERASE / ALBUMIN / ALKALINE PHOSPHATASE: tissue Plasma; for BASOPHIL / EOSINOPHIL / ERYTHROCYTE COUNT / HEMATOCRIT / HEMOGLOBIN / LEUKOCYTE COUNT / LYMPHOCYTE / MEAN CORPUSCULAR HEMOGLOBIN / MEAN CORPUSCULAR HEMOGLOBIN CONCENTRATION / MEAN CORPUSCULAR VOLUME / MONOCYTE / NEUTROPHIL / PLATELET COUNT: tissue Blood
[1] = 0 mg/kg, […], dose level Control, time 14 day
[2] = 200 mg/kg, 72 h, dose level High, time 3 day
[3] = 200 mg/kg, 120 h, dose level High, time 5 day

Nc1cccc(Cl)c1 [3-CHLOROANILINE]
ASPARTATE AMINOTRANSFERASE [1]: 84.17 u/L | BLOOD UREA NITROGEN [1]: 16 mg/dL | CARBON DIOXIDE [1]: 35.17 mmol/L | CHLORIDE [1]: 99.83 MEQ/L | CHOLESTEROL [1]: 68.67 mg/dL | CREATINE PHOSPHOKINASE [1]: 384.17 u/L | CREATININE [1]: 0.43 mg/dL | GLUCOSE [1]: 160 mg/dL | LACTATE DEHYDROGENASE [1]: 115.33 u/L | LIPASE [1]: 17.33 u/L | PHOSPHORUS [1]: 10.68 mg/dL | POTASSIUM [1]: 6.48 MEQ/L | SODIUM [1]: 148.17 MEQ/L | TOTAL BILIRUBIN [1]: 0.45 mg/dL | TOTAL PROTEIN [1]: 6.57 G/DL | URIC ACID [1]: 1.78 mg/dL | BASOPHIL [2]: 0.8% | EOSINOPHIL [2]: 0.35% | ERYTHROCYTE COUNT [2]: 6.14 x10E6/uL | HEMATOCRIT [2]: 40.2% | HEMOGLOBIN [2]: 12.45 G/DL | LEUKOCYTE COUNT [2]: 16.22 x10E3/uL | LYMPHOCYTE [2]: 78.8% | MEAN CORPUSCULAR HEMOGLOBIN [2]: 20.3 pg | MEAN CORPUSCULAR HEMOGLOBIN CONCENTRATION [2]: 31 G/DL | MEAN CORPUSCULAR VOLUME [2]: 65.45 fL | MONOCYTE [2]: 2.65% | NEUTROPHIL [2]: 16.45% | PLATELET COUNT [2]: 1382 x10E3/uL | ALANINE AMINOTRANSFERASE [2]: 38.5 u/L | ALBUMIN [2]: 4.1 G/DL | ALKALINE PHOSPHATASE [2]: 564 u/L | ASPARTATE AMINOTRANSFERASE [2]: 78.5 u/L | BLOOD UREA NITROGEN [2]: 14 mg/dL | CARBON DIOXIDE [2]: 30.5 mmol/L | CHLORIDE [2]: 106 MEQ/L | CHOLESTEROL [2]: 63.5 mg/dL | CREATINE PHOSPHOKINASE [2]: 161 u/L | CREATININE [2]: 0.4 mg/dL | GLUCOSE [2]: 168.5 mg/dL | LACTATE DEHYDROGENASE [2]: 65.5 u/L | LIPASE [2]: 14.5 u/L | PHOSPHORUS [2]: 13.95 mg/dL | POTASSIUM [2]: 6.9 MEQ/L | SODIUM [2]: 148 MEQ/L | TOTAL BILIRUBIN [2]: 0.5 mg/dL | TOTAL PROTEIN [2]: 6.1 G/DL | URIC ACID [2]: 1.65 mg/dL | BASOPHIL [3]: 0.4% | EOSINOPHIL [3]: 0.7% | ERYTHROCYTE COUNT [3]: 5.95 x10E6/uL | HEMATOCRIT [3]: 43% | HEMOGLOBIN [3]: 13 G/DL | LEUKOCYTE COUNT [3]: 15.09 x10E3/uL | LYMPHOCYTE [3]: 67.85% | MEAN CORPUSCULAR HEMOGLOBIN [3]: 21.85 pg | MEAN CORPUSCULAR HEMOGLOBIN CONCENTRATION [3]: 30.25 G/DL | MEAN CORPUSCULAR VOLUME [3]: 72.25 fL | MONOCYTE [3]: 4.1% | NEUTROPHIL [3]: 26.4% | PLATELET COUNT [3]: 1312 x10E3/uL | ALANINE AMINOTRANSFERASE [3]: 35 u/L | ALBUMIN [3]: 4.1 G/DL | ALKALINE PHOSPHATASE [3]: 356 u/L | ASPARTATE AMINOTRANSFERASE [3]: 72.5 u/L | BLOOD UREA NITROGEN [3]: 12 mg/dL | CARBON DIOXIDE [3]: 29.5 mmol/L | CHLORIDE [3]: 103.5 MEQ/L | CHOLESTEROL [3]: 69.5 mg/dL | CREATINE PHOSPHOKINASE [3]: 182 u/L | CREATININE [3]: 0.25 mg/dL | GLUCOSE [3]: 150.5 mg/dL | LACTATE DEHYDROGENASE [3]: 149 u/L | LIPASE [3]: 9 u/L | PHOSPHORUS [3]: 13.05 mg/dL | POTASSIUM [3]: 6.45 MEQ/L | SODIUM [3]: 148.5 MEQ/L | TOTAL BILIRUBIN [3]: 0.55 mg/dL | TOTAL PROTEIN [3]: 6.3 G/DL | URIC ACID [3]: 1.75 mg/dL
